Columns and labels:
mouse duodenum = experiment: Amperometric measurement of 5-HT secretion, mouse small intestine; conditions: 10 mM Indole
Text: (§1) These experiments using C57BL/6J mice were approved by the Flinders University Animal Welfare Committee (number 965-19) and human ileum tissue was collected from resected small and large intestine from patients that gave written informed consent under the approval of the Southern Adelaide Clinical Human Research Ethics Committee (number 50.07) as previous (Sun et al., 2019a). Mice were euthanized at 8 to 12 weeks by isoflurane overdose followed by cervical dislocation. The duodenum was removed and placed in Krebs solution oxygenated with 95% O2, 5% CO2. A midline incision was made along the duodenum to create a flat sheet, the section was pinned with the mucosal side up in an organ bath lined with Sylgard and containing oxygenated Krebs solution. Serotonin release was measured using amperometry. A carbon-fibre electrode (5-μm diameter, ProCFE; Dagan Corporation, Minneapolis, Minn.), was lowered above the mucosa and 400 mV potential was applied to the electrode causing oxidation of serotonin (Zelkas et al., 2015). […] The change in amplitude due to serotonin oxidation was recorded using an EPC-10 amplifier and Pulse software (HEKA Electronic, Lambrecht/Pfalz, Germany), and samples at 10 kHz and low-pass filtered at 1 kHz. Data was assessed as peak current during each treatment. Data was analyzed comparing all groups using one-way ANOVA with Tukey's post-hoc test. […]

intestinal motility = experiment: Zebrafish intestinal motility (PIV-Lab velocity analysis); assay type: in vivo; conditions: indole stimulation
Procedure: For EEC Trpa1 activation using the Optovin platform, zebrafish larvae were treated with 10 μM Optovin overnight. Following Optovin treatment, unanesthetized zebrafish were mounted in 1% LMA and imaged under a 780 upright Zeiss confocal microscope using 20× water objective lenses. For all the experiments, the mid-intestine region was imaged (FIG. 10D). The intestinal epithelium was selected as the region of interest (ROI) (FIG. 10A). Serial images were obtained at 1 s/frame. A 405 nm pulse of light was applied to the ROI at 1 pulse/10 s. For some experiments (FIG. 7D-F, FIG. 10B-G), the images were obtained at 10 s/frame.
The zebrafish intestinal motility is quantified through recorded image series of zebrafish intestine using the method similar as previously described (Ganz et al., 2018). Intestinal p velocity and v velocity were used to estimate intestinal motility in zebrafish as previously described using the PIV-Lab MATLAB app (Ganz et al., 2018). A positive value of the μ velocity indicates an anterograde intestinal movement and a negative value of the μ velocity indicates a retrograde intestinal movement. The time-course p velocity number is plotted as heatmaps. When calculating the mean velocity, only the mean velocity magnitude was calculated, which therefore doesn't account for the movement direction. The MTrackJ FIJI plugin was used to quantify the mean velocity magnitude (Meijering et al., 2012).

human ileum = experiment: Amperometric measurement of 5-HT secretion, human small intestine; conditions: 10 mM Indole
Text: as §1

mouse TRPA1 = biological target: T1, mouse TRPA1 (Mus musculus, UniProt Q8BLA8); experiment: Ca2+ influx (Calcium 6 fluorescence) in mouse Trpa1-expressing HEK-293T cells; assay type: cell-based
T1 construct: expressed in transfected cells; host or cells: HEK-293T
Procedure: (§2) HEK-293T cells were cultured in DMEM (Thermofisher Scientific, Waltham, Mass.) and supplemented with 10% fetal bovine serum (FBS) (Thermofisher Scientific), penicillin (100 units/mL) and streptomycin (0.1 mg/mL). Cells were plated on 100 mm tissue culture plates coated with poly-D-lysine (Sigma Aldrich, Saint Louis, Mo.) and grown to ˜60% confluence. The cells were transiently transfected for 16-24 hours with either human or mouse orthologs of TRPA1 using Fugene 6 transfection reagents and Opti-MEM (Thermofisher Scientific) according to the manufacturer's protocol. Subsequently, cells were trypsinized, re-suspended and re-plated onto poly-D-lysine coated 96-well plates (Krystal black walled plates, Genesee Scientific) at 5×10^5 cells/mL (100 μL/well) and allowed to grow for another 16-20 hrs prior to the experiments. Cells were maintained as monolayers in a 5% CO2 incubator at 37° C.
(§3) Measurements of changes in intracellular Ca^2+ concentrations ([Ca^2+]i) were performed as described previously (Caceres et al., 2017). In brief, cells in 96-well plates were loaded with Calcium 6, a no-wash fluorescent indicator, for 1.5 hrs (Molecular Devices, San Jose, Calif.) and then transferred to a FlexStation III benchtop scanning fluorometer chamber (Molecular Devices). Fluorescence measurements in the FlexStation were performed at 37° C. (Ex:485 nm, Em: 525 nm at every 1.8 s). After recording baseline fluorescence, agonists (indole, IAld, cinnamaldehyde) were added and fluorescence was monitored for a total of 60 s. […] The change in fluorescence was measured as Fmax-F0, where Fmax is the maximum fluorescence and F0 is the baseline fluorescence measured in each well.

vagal sensory neurons = experiment: In vivo calcium imaging of vagal sensory ganglia after microgavage; design: species or system zebrafish
Procedure: For delivering bacterial or chemicals specifically to the intestine, the established microgavage technique (Cocchiaro and Rawls, 2013) was adopted. Zebrafish were anesthetized with 1 mg/mL α-Bungarotoxin (α-BTX) and the gavage procedure was performed as previously described using microinjection station (Cocchiaro and Rawls, 2013). For bacteria gavage experiments, 1 ml of overnight bacterial culture was harvested, pelleted, washed with PBS and resuspended in 100 ul PBS.˜8 nl was then delivered into the zebrafish intestine using microgavage. The gavaged zebrafish was then transferred into egg water and mounted in 1% LMA for imaging. For chemical gavage experiments, ˜8 nl of AITC (100 mM), indole (1 mM) and IAld (1 mM) was gavaged into the intestine.
Tg(neurod1:Gcamp6f); Tg(neurod1:TagRFP) zebrafish were used to record vagal sensory ganglia calcium activity in vivo. Zebrafish were anesthetized with 1 mg/mL α-Bungarotoxin (α-BTX) and gavaged with chemical compounds or bacteria as described (Naumann et al., 2016). Zebrafish larvae were mounted in 1% LMA and imaged under a Zeiss 780 upright confocal microscope. Z-stack images of the entire vagal ganglia were collected as serial images at 10 mins/frame and processed in FIJI. Individual vagal sensory neurons were identified and the Gcamp6f to TagRFP fluorescence ratios of individual vagal sensory neurons were calculated.

human TRPA1 = human TRPA1 (Homo sapiens, UniProt O75762); experiment: Ca2+ influx (Calcium 6 fluorescence) in human TRPA1 expressing HEK-293T cells; assay type: cell-based
Procedure: as §2, §3

Chain of human TRPA1 (O75762 whole entry): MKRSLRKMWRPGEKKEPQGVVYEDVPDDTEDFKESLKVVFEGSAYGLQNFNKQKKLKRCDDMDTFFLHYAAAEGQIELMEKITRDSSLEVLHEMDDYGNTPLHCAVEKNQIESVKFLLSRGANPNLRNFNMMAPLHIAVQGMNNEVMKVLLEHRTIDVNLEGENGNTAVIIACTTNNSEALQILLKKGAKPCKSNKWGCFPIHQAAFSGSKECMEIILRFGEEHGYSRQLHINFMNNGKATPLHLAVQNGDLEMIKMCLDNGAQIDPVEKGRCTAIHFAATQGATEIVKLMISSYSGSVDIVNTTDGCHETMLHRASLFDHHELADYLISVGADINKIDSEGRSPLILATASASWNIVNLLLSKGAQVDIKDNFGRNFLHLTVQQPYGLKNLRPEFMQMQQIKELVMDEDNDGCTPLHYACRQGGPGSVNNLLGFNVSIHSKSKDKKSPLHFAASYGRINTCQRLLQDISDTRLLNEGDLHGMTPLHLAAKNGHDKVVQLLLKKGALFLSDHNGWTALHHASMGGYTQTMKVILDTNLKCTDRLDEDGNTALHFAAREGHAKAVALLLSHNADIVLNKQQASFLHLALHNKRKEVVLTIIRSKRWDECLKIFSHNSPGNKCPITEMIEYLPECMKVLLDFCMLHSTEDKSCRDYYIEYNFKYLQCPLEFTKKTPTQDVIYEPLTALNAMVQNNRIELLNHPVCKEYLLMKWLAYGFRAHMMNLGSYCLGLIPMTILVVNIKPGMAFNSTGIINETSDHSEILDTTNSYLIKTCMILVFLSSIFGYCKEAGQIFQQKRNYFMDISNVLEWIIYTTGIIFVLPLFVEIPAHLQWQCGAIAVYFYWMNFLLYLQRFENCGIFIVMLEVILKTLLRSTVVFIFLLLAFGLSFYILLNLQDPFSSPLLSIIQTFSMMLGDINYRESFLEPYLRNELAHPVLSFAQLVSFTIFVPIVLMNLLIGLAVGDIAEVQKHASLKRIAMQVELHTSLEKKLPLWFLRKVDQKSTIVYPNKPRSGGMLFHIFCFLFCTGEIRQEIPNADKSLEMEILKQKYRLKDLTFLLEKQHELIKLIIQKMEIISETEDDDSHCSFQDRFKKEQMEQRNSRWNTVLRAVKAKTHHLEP
T1 sequence (Q8BLA8 whole entry): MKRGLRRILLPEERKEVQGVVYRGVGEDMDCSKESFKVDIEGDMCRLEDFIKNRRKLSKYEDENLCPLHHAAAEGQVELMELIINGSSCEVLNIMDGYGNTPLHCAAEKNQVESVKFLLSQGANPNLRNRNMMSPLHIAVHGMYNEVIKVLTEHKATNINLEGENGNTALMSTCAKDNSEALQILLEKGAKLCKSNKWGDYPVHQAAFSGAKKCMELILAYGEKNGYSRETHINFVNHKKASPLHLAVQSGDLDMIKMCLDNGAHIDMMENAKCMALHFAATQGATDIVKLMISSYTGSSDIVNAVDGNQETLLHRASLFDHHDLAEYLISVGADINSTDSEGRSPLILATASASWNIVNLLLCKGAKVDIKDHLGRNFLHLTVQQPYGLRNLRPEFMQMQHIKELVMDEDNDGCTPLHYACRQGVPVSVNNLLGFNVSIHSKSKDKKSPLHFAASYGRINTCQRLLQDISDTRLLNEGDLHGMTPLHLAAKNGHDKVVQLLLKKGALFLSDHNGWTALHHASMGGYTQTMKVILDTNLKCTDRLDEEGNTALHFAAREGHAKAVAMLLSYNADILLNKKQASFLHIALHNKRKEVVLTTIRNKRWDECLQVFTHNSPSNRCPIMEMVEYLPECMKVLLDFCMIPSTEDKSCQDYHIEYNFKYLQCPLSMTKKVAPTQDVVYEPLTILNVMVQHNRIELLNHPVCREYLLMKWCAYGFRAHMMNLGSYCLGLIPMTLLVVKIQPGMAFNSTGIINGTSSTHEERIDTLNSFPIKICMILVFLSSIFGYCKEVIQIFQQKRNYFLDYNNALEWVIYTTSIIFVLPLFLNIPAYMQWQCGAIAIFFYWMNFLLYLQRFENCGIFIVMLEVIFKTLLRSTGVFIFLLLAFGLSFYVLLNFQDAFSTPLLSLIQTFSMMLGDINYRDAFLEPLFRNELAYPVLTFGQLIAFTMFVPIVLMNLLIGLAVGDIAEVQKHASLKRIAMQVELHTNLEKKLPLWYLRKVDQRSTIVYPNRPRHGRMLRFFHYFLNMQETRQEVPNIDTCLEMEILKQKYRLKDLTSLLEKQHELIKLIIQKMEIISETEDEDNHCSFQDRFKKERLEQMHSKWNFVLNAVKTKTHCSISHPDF

c1ccc2[nH]ccc2c1 [Indole]
5-HT secretion in mouse duodenum (mouse duodenum): significant increase
Intestinal motility on stimulation of zebrafish larvae (intestinal motility): increases intestinal motility
5-HT secretion in human ileum (human ileum): significant increase
EC50 (mouse TRPA1): 131 µM
Activation of mouse Trpa1 (mouse TRPA1; compared with human TRPA1): activated mouse Trpa1, but in a less potent manner
Vagal sensory neuron activation in larvae lacking EECs (vagal sensory neurons; EEC-ablated zebrafish, enteric indole): abrogated
Gcamp6f fluorescence in a subset of vagal sensory neurons (vagal sensory neurons; WT, enteric microgavage ~8 nl, AITC 100 mM, indole 1 mM, IAld 1 mM): increased
Activation of human TRPA1 receptor transfected into HEK cells (human TRPA1): activated
EC50 (human TRPA1): 88.7 µM
TRPA1 agonist efficacy (human TRPA1; efficiency comparable to cinnamaldehyde (CAD)): full TRPA1 agonist activity

Source: patent publication US20230149355A1, “COMPOSITIONS AND METHODS FOR MODULATING TRP CHANNEL ACTIVITY” (priority 2020, published 2023)
